Km data for one molecule are collected here from article PMC6333238, “The biosynthetic implications of late-stage condensation domain selectivity during glycopeptide antibiotic biosynthesis” (Chemical Science, 2018).

Holding throughout (test): coupled PPi-release A-domain assay (PPi-PFK/aldolase/TPI/GDH, NADH)
What all share (type): biochemical
Holding throughout (conditions): apo-PCP form, 0.5 mM ATP, 1 mM MgCl2, pH 7.4, 0.1 mM EDTA, enzyme 0.5 μM

The target in assay [1] is T1, Tcp12_ΔTE2 (Actinoplanes teichomyceticus, UniProt Q70AZ6).
T1 construct: gene tcp12; with MbtH-like protein Tcp17
An excerpt: coupled PPi-release A-domain assay (PPi-PFK/aldolase/TPI/GDH, NADH) on Tcp12_ΔTE2

The target of assay [2] is T2, Tcp12_ΔTE3 (Actinoplanes teichomyceticus, UniProt Q70AZ6).
T2 construct: gene tcp12; with MbtH-like protein Tcp17
The text has this:
coupled PPi-release A-domain assay (PPi-PFK/aldolase/TPI/GDH, NADH) on Tcp12_ΔTE3

Assay [3] deals with T3, Tcp12_ΔTE1 (Actinoplanes teichomyceticus, UniProt Q70AZ6).
T3 construct: gene tcp12; with MbtH-like protein Tcp17
The text has this: coupled PPi-release A-domain assay (PPi-PFK/aldolase/TPI/GDH, NADH) on Tcp12_ΔTE1

T2 sequence (Q70AZ6 entry or part of it, stated change not applied): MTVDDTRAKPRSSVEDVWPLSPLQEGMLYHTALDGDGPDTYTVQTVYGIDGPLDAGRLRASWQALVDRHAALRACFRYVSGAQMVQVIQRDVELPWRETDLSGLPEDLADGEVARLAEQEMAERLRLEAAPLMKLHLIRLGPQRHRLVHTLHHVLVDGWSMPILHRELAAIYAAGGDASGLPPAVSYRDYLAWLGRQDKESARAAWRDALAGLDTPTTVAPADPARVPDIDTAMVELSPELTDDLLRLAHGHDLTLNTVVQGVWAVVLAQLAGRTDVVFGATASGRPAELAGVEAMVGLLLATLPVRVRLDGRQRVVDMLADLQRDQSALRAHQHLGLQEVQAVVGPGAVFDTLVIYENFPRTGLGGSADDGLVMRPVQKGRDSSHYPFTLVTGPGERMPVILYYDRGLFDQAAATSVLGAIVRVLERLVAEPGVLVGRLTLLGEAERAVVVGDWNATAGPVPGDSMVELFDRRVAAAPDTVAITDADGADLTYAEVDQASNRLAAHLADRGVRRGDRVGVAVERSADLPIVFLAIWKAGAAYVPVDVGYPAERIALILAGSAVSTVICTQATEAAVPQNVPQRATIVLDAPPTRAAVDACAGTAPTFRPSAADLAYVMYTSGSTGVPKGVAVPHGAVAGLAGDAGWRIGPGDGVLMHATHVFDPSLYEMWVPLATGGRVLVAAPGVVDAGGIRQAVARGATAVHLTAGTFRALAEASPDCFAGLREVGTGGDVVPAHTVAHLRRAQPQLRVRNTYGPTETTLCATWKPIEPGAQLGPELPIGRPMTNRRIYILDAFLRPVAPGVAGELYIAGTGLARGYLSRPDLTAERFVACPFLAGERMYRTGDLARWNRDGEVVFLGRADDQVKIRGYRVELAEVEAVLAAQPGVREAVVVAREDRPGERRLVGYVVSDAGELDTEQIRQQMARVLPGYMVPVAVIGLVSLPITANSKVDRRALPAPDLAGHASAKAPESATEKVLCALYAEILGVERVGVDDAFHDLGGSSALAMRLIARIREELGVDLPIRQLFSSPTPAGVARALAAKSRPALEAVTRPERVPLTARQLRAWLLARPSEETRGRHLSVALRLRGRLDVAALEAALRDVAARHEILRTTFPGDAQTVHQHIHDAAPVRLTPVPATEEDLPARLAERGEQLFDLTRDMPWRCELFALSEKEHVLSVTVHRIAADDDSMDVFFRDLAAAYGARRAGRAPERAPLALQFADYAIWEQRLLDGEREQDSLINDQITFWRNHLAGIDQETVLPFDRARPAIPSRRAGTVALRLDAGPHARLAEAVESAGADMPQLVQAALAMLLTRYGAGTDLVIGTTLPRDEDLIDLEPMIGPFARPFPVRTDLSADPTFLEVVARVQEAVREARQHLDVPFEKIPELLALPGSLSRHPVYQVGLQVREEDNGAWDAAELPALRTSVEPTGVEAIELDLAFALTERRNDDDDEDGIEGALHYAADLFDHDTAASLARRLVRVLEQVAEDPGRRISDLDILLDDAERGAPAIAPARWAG
T2 sequence (Q70AZ1 entry or part of it, stated change not applied, further chain): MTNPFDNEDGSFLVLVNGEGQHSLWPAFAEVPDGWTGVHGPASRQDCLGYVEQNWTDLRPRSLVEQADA
T1 sequence (Q70AZ6 entry or part of it, stated change not applied): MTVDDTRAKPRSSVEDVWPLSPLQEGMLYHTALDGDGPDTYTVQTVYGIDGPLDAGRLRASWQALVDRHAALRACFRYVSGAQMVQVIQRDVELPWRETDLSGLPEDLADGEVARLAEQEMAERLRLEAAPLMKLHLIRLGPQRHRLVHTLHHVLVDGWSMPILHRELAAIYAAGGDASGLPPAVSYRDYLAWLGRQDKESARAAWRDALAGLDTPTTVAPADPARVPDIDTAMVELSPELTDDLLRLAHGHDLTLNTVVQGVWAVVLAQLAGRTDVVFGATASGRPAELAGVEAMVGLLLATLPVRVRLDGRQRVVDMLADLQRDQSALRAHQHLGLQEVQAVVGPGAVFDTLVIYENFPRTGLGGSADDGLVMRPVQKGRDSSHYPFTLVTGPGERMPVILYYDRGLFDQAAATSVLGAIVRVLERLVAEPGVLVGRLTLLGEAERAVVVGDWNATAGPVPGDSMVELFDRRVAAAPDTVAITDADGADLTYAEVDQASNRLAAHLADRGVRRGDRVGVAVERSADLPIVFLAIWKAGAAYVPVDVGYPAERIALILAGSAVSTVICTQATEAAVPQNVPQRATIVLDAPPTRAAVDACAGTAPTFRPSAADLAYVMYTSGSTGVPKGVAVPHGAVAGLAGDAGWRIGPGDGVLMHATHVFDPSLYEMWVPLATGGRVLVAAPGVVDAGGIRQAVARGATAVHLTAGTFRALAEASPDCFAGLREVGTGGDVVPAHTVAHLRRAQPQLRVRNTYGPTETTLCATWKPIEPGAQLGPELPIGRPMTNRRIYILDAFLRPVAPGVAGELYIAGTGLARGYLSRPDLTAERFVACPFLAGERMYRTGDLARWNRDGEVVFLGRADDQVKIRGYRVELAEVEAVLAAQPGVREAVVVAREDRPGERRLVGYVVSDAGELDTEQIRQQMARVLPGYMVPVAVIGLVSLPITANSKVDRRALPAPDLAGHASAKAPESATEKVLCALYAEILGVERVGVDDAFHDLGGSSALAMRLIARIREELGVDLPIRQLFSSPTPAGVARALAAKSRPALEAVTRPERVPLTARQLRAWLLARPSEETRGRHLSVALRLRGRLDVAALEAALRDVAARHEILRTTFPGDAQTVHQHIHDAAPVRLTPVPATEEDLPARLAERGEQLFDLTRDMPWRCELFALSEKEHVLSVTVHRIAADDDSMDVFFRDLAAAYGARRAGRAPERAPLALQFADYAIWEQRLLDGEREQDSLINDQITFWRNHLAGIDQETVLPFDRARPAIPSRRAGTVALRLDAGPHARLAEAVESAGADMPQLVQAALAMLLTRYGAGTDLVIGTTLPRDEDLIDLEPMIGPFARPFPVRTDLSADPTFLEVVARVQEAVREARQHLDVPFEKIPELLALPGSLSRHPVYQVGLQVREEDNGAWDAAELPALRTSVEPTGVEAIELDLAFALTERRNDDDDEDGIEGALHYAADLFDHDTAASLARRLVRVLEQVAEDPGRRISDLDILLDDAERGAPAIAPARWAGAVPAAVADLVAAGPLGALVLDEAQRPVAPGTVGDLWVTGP
T1 sequence (Q70AZ1 entry or part of it, stated change not applied, further chain): as the sequence (Q70AZ1 entry or part of it, stated change not applied, further chain) above
T3 sequence (Q70AZ6 entry or part of it, stated change not applied): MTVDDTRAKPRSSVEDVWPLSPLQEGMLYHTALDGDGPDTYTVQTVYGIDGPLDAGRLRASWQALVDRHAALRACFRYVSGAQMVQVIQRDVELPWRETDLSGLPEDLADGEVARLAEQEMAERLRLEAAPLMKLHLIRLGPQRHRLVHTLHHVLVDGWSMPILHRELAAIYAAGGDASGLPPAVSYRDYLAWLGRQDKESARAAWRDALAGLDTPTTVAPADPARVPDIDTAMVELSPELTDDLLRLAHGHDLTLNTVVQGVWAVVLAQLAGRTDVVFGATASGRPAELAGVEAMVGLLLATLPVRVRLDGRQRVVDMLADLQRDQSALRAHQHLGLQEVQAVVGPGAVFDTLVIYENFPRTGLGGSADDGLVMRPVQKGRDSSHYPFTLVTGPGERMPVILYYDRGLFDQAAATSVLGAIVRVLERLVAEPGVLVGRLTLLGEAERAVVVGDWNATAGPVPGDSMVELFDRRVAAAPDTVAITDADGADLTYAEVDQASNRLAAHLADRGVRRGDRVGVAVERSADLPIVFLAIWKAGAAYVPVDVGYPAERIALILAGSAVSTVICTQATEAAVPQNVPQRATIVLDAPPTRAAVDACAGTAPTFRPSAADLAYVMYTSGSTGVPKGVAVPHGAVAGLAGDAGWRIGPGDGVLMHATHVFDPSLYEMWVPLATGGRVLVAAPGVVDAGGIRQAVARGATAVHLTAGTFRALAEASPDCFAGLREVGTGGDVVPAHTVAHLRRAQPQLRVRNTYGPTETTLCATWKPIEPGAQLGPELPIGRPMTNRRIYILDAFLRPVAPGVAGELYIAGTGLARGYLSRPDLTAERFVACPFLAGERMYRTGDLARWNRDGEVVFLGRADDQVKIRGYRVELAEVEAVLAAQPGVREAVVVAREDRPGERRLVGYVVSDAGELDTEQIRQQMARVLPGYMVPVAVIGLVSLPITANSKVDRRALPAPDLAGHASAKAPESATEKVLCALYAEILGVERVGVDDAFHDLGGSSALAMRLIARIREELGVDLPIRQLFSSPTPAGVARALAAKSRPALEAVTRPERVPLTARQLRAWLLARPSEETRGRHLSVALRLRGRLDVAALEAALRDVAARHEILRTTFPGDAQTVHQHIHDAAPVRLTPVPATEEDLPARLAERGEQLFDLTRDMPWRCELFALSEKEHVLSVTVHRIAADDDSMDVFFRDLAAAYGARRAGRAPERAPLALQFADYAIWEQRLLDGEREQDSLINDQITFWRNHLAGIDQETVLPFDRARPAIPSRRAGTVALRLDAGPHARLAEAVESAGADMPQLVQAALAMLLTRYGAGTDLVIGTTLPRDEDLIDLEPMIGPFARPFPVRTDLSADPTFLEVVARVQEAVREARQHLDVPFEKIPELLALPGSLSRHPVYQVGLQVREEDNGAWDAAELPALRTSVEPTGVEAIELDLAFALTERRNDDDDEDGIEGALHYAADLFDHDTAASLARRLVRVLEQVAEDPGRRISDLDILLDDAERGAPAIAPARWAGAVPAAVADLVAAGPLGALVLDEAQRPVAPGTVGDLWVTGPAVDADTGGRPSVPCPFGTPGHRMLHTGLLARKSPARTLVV
T3 sequence (Q70AZ1 entry or part of it, stated change not applied, further chain): as the sequence (Q70AZ1 entry or part of it, stated change not applied, further chain) above

One may read the Km as the concentration of substrate that gives half-maximal velocity. For `N[C@H](C(=O)O)c1cc(O)cc(O)c1` [Dpg, (S)-3,5-dihydroxyphenylglycine], the figures for the Km in assay [1], in assay [2] and in assay [3] were 10 ± 0.9 µM, 8 ± 0.6 µM and 6 ± 0.6 µM, respectively.
